Results: the supplement of paper PMC11061612

Key:
Experiment in all cases: combination Emax (second highest fraction inhibited in the dose matrix, 72 h); higher = more inhibition; extreme values may be limits of the assay
[1] = tested on: SUP-M2 (T-Cell Non-Hodgkin's Lymphoma)
Procedure, shortened: (§1)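 After 24 hours at 37°C and 5% CO2 in 1536-well plates, cells in DMEM/F12 or RPMI plus 10% FBS received two-drug dose matrices for 72 hours. Viability came from CellTiter-Glo 2.0 luminescence and was scaled as inhibition, anchored at 0 by vehicle wells and at 1 by blank wells. Combination Emax is taken as the second-highest inhibition in the matrix, and Bliss excess as the observed combination effect less EA + EB − EA·EB, with EA and EB the single-agent effects.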

[2] = tested on: IA-LM (Non-Small Cell Lung Carcinoma)
Procedure, shortened: as §1

[3] = tested on: MS-1 (Small Cell Lung Carcinoma)
Procedure, shortened: as §1

NCI-H226 (Mesothelioma) = tested on: NCI-H226 (Mesothelioma)
Procedure, shortened: as §1

GAK (Melanoma) = tested on: GAK (Melanoma)
Procedure, shortened: as §1

[4] = tested on: MDA-MB-415 (Breast Carcinoma)
Procedure, shortened: as §1

AM-38 (Glioblastoma) = tested on: AM-38 (Glioblastoma)
Procedure, shortened: as §1

[5] = tested on: SNU-423 (Hepatocellular Carcinoma)
Procedure, shortened: as §1

[6] = tested on: LCLC-103H (Non-Small Cell Lung Carcinoma)
Procedure, shortened: as §1

[7] = tested on: SKG-IIIa (Cervical Carcinoma)
Procedure, shortened: as §1

UACC-257 (Melanoma) = tested on: UACC-257 (Melanoma)
Procedure, shortened: as §1

T47D (Breast Carcinoma) = tested on: T47D (Breast Carcinoma)
Procedure, shortened: as §1

[8] = tested on: NCI-H3118 (Head and Neck Carcinoma)
Procedure, shortened: as §1

[9] = tested on: KP-4 (Pancreatic Carcinoma)
Procedure, shortened: as §1

[10] = tested on: BxPC-3 (Pancreatic Carcinoma)
Procedure, shortened: as §1

[11] = tested on: PL4 (Pancreatic Carcinoma)
Procedure, shortened: as §1

NB1 (Neuroblastoma) = tested on: NB1 (Neuroblastoma)
Procedure, shortened: as §1

[12] = tested on: PA-TU-8988T (Pancreatic Carcinoma)
Procedure, shortened: as §1

[13] = tested on: NCI-H596 (Other Solid Carcinomas)
Procedure, shortened: as §1

[14] = tested on: SCC-4 (Oral Cavity Carcinoma)
Procedure, shortened: as §1

Row | Structure (SMILES) | combination Emax [1] | combination Emax [2] | combination Emax [3] | combination Emax (NCI-H226 (Mesothelioma)) | combination Emax (GAK (Melanoma)) | combination Emax [4] | combination Emax (AM-38 (Glioblastoma)) | combination Emax [5] | combination Emax [6] | combination Emax [7] | combination Emax (UACC-257 (Melanoma)) | combination Emax (T47D (Breast Carcinoma)) | combination Emax [8] | combination Emax [9] | combination Emax [10] | combination Emax [11] | combination Emax (NB1 (Neuroblastoma)) | combination Emax [12] | combination Emax [13] | combination Emax [14]
1 | COc1nnc2ccc(N3CCC(c4ccc(OCCN5CCN(C)C(=O)[C@H]5C)cc4)CC3)nn12 [AZD5153] + CCN(CCO)CCCOc1ccc2c(Nc3cc(CC(=O)Nc4cccc(F)c4)[nH]n3)ncnc2c1 [AZD2811] (first compound max 1 µM, 7x7, partner max 1 µM) | 0.994 | 0.401 | 0.854 | 0.443 | 0.44 | 0.502 | 0.433 | 0.507 | 0.511 | 0.495 | 0.372 | 0.494 | 0.55 | 0.67 | 0.491 | 0.53 | 0.556 | 0.695 | 0.744 | 0.444
2 | COc1nnc2ccc(N3CCC(c4ccc(OCCN5CCN(C)C(=O)[C@H]5C)cc4)CC3)nn12 [AZD5153] + Cn1cnc2c(F)c(Nc3ccc(Br)cc3Cl)c(C(=O)NOCCO)cc21 [Selumetinib] (first compound max 1 µM, 7x7, partner max 10 µM) | 1 | 0.457 | 0.817 | 0.377 | 0.612 | 0.429 | 0.659 | 0.424 | 0.454 | 0.537 | 0.825 | 0.549 | 0.63 | 0.597 | 0.616 | 0.851 | 0.445 | 0.778 | 0.725 | 0.509
3 | CC(=O)c1c(C)c2cnc(Nc3ccc(N4CCNCC4)cn3)nc2n(C2CCCC2)c1=O [Palbociclib] + Cc1c2c(nn1C)CSCc1cc(n(C)n1)CSc1cc(c3ccccc3c1)OCCCc1c(C(=O)O)n(C)c3c-2c(Cl)ccc13 [AZD5991] (first compound max 10 µM, 7x7, partner max 1 µM) | 1 | 0.306 | 0.609 | 0.204 | 0.369 | 0.444 | 0.405 | 0.315 | 0.329 | 0.146 | 0.21 | 0.413 | 0.426 | 0.412 | 0.301 | 0.263 | 0.529 | 0.229 | 0.349 | 0.202
4 | NC1(C(=O)N[C@@H](CCO)c2ccc(Cl)cc2)CCN(c2ncnc3[nH]ccc23)CC1 [Capivasertib] + CC(C)n1c(=O)n(C)c2cnc3cc(F)c(-c4ccc(OCCCN5CCCCC5)nc4)cc3c21 [AZD1390] (first compound max 10 µM, 7x7, partner max 0.3 µM) | 0.19 | 0.263 | 0.307 | 0.335 | 0.219 | 0.846 | 0.17 | 0.503 | 0.267 | 0.244 | 0.26 | 0.37 | 0.247 | 0.355 | 0.181 | 0.24 | 0.626 | 0.278 | 0.542 | 0.227
5 | COc1nnc2ccc(N3CCC(c4ccc(OCCN5CCN(C)C(=O)[C@H]5C)cc4)CC3)nn12 [AZD5153] + C=CCn1c(=O)c2cnc(Nc3ccc(N4CCN(C)CC4)cc3)nc2n1-c1cccc(C(C)(C)O)n1 [AZD1775] (first compound max 1 µM, partner max 1 µM) | 0.996 | 0.348 | 0.964 | 0.448 | 0.471 | 0.44 | 0.353 | 0.462 | 0.549 | 0.546 | 0.359 | 0.505 | 0.754 | 0.684 | 0.529 | 0.662 | 0.842 | 0.778 | 0.803 | 0.568
6 | CC1(C)CCC(CN2CCN(c3ccc(C(=O)NS(=O)(=O)c4ccc(NCC5CCOCC5)c([N+](=O)[O-])c4)c(Oc4cnc5[nH]ccc5c4)c3)CC2)=C(c2ccc(Cl)cc2)C1 [Venetoclax] + Cn1cnc2c(F)c(Nc3ccc(Br)cc3Cl)c(C(=O)NOCCO)cc21 [Selumetinib] (first compound max 1 µM, 7x7, partner max 3 µM) | 0.366 | 0.175 | 0.396 | 0.0891 | 0.731 | 0.176 | 0.498 | 0.192 | 0.115 | 0.127 | 0.621 | 0.0758 | 0.294 | 0.131 | 0.323 | 0.443 | 0.0633 | 0.272 | 0.222 | 0.164
7 | CC1(C)CCC(CN2CCN(c3ccc(C(=O)NS(=O)(=O)c4ccc(NCC5CCOCC5)c([N+](=O)[O-])c4)c(Oc4cnc5[nH]ccc5c4)c3)CC2)=C(c2ccc(Cl)cc2)C1 [Venetoclax] + C[C@@H](Nc1cc(F)cc(F)c1)c1cc(C(=O)N(C)C)cc2c(=O)cc(N3CCOCC3)oc12 [AZD8186] (first compound max 1 µM, 7x7, partner max 3 µM) | 0.344 | 0.0865 | 0.32 | 0.0928 | 0.242 | 0.663 | 0.157 | 0.383 | 0.253 | 0.168 | 0.121 | 0.272 | 0.0963 | 0.421 | 0.245 | 0.243 | 0.145 | 0.257 | 0.241 | 0.614
8 | C[C@@H](c1ccc2nccn2c1)n1nnc2ncc(-c3cnn(C)c3)nc21 [Savolitinib] + CN(CC[C@H](CSC1=CC=CC=C1)NC2=C(C=C(C=C2)S(=O)(=O)NC(=O)C3=CC=C(C=C3)N4CCC(CC4)[C@H](C5=CC=CC=C5C6=CC=C(C=C6)Cl)O)S(=O)(=O)C(F)(F)F)CCO [AZD4320] (first compound max 1 µM, 7x7, partner max 1 µM) | 0.287 |  |  |  |  |  | 0.613 |  |  |  | 0.411 | 0.252 |  |  |  | 0.472 | 0.159 | 0.191 | 0.275 | 
9 | CCc1c2c(nc3ccc(O)cc13)-c1cc3c(c(=O)n1C2)COC(=O)[C@]3(O)CC [SN-38] + O=C(c1cc(Cc2n[nH]c(=O)c3ccccc23)ccc1F)N1CCN(C(=O)C2CC2)CC1 [Olaparib] (first compound max 0.3 µM, 7x7, partner max 10 µM) | 1 | 0.878 | 0.724 | 0.168 | 0.472 | 0.321 | 0.882 | 0.495 | 0.54 | 0.389 | 0.343 | 0.625 | 0.396 | 0.817 | 0.59 | 0.903 |  | 0.604 |  | 0.847
10 | Cc1c2c(nn1C)CSCc1cc(n(C)n1)CSc1cc(c3ccccc3c1)OCCCc1c(C(=O)O)n(C)c3c-2c(Cl)ccc13 [AZD5991] + CCN(CCO)CCCOc1ccc2c(Nc3cc(CC(=O)Nc4cccc(F)c4)[nH]n3)ncnc2c1 [AZD2811] (first compound max 1 µM, 7x7, partner max 1 µM) | 1 | 0.296 | 0.48 | 0.262 | 0.314 | 0.56 | 0.32 | 0.335 | 0.371 | 0.235 | 0.322 | 0.708 | 0.625 | 0.667 | 0.269 | 0.474 | 0.694 | 0.775 |  | 0.663
11 | CC(=O)c1c(C)c2cnc(Nc3ccc(N4CCNCC4)cn3)nc2n(C2CCCC2)c1=O [Palbociclib] + CN(CC[C@H](CSC1=CC=CC=C1)NC2=C(C=C(C=C2)S(=O)(=O)NC(=O)C3=CC=C(C=C3)N4CCC(CC4)[C@H](C5=CC=CC=C5C6=CC=C(C=C6)Cl)O)S(=O)(=O)C(F)(F)F)CCO [AZD4320] (first compound max 10 µM, 7x7, partner max 1 µM) | 0.897 |  |  |  |  |  | 0.872 |  |  |  | 0.183 | 0.344 |  |  |  | 0.483 | 0.597 | 0.33 | 0.521 | 
12 | COc1nnc2ccc(N3CCC(c4ccc(OCCN5CCN(C)C(=O)[C@H]5C)cc4)CC3)nn12 [AZD5153] + CN(CC[C@H](CSC1=CC=CC=C1)NC2=C(C=C(C=C2)S(=O)(=O)NC(=O)C3=CC=C(C=C3)N4CCC(CC4)[C@H](C5=CC=CC=C5C6=CC=C(C=C6)Cl)O)S(=O)(=O)C(F)(F)F)CCO [AZD4320] (first compound max 1 µM, 7x7, partner max 1 µM) | 0.986 |  |  |  |  |  | 0.949 |  |  |  | 0.413 | 0.472 |  |  |  | 0.809 | 0.248 | 0.695 | 0.823 | 
13 | C=CCn1c(=O)c2cnc(Nc3ccc(N4CCN(C)CC4)cc3)nc2n1-c1cccc(C(C)(C)O)n1 [AZD1775] + C[C@@H]1COCCN1C2=NC(=NC(=C2)C3(CC3)[S@](=N)(=O)C)C4=C5C=CNC5=NC=C4 [AZD6738] (first compound max 1 µM, partner max 10 µM) | 1 | 0.446 | 0.983 | 0.466 | 0.821 | 0.595 | 0.818 | 0.747 | 0.752 | 0.586 | 0.344 | 0.412 | 0.855 |  | 0.624 | 0.738 | 0.944 | 0.833 | 0.663 | 0.763
